Experimental findings from paper PMC10291549, “Reaction Behavior of [1,3-Diethyl-4,5-diphenyl-1H-imidazol-2-ylidene] Containing Gold(I/III) Complexes against Ingredients of the Cell Culture Medium and the Meaning on the Potential Use for Cancer Eradication Therapy” (Journal of Medicinal Chemistry, 2023) are described below.

For data set [1], the system named is A549-R cells (Taxol/Paclitaxel-resistant subclone). It is filed as cell-based. To be noted: 72 h incubation; mean ± SD of two or three independent experiments; read-out: metabolic activity IC50, A549-R.
In data set [2] the test system is MCF-7TamR cells (Tamoxifen-resistant subline). It is filed as cell-based, human. To be noted: 72 h incubation; mean ± SD of two or three independent experiments; read-out: metabolic activity IC50, MCF-7TamR.
Another data set concerns MCF-7 cells. Format: cell-based, human. To be noted: 72 h incubation; mean ± SD of two or three independent experiments; read-out: metabolic activity IC50, MCF-7.
A further data set deals with K562 cells. Format: cell-based. As to conditions: 72 h incubation; mean ± SD of two or three independent experiments; read-out: metabolic activity IC50, K562.
The subject of the next data set is A549 cells. It is filed as cell-based. As to conditions: 72 h incubation; mean ± SD of two or three independent experiments; read-out: metabolic activity IC50, A549.
The test system of data set [3] is K562-R cells (Doxorubicin-resistant subclone). Format: cell-based. To be noted: 72 h incubation; mean ± SD of two or three independent experiments; read-out: metabolic activity IC50, K562-R.
A further data set concerns IGROV1-CSC cells. Format: cell-based. To be noted: 72 h incubation; mean ± SD of two or three independent experiments; read-out: metabolic activity IC50, IGROV1-CSC.
A further data set has as its system A2780 cells. It is filed as cell-based, human.
In data set [4] the test system is A2780cis cells (Cisplatin-resistant). It is filed as cell-based, human. As to conditions: 72 h incubation; mean ± SD of two or three independent experiments; read-out: metabolic activity IC50, A2780cis.
A further data set deals with IGROV1 cells. Format: cell-based. As to conditions: 72 h incubation; mean ± SD of two or three independent experiments; read-out: metabolic activity IC50, IGROV1.
The nature of data set [5]: HPLC degradation study in ACN/RPMI 1640 cell culture medium. To be noted: ACN/RPMI 1640 50/50, 0.5 mM.
Data set [6] in a line: HPLC reactivity study in chloride containing ACN/water. Format: physicochemical. To be noted: chloride containing ACN/water 50/50, 0.5 mM.
Setting [7] is: 72 h incubation, mean ± SD of two or three independent experiments, read-out: metabolic activity IC50, A2780.

Where two headings read alike, the source gives them in different places.

Broadly, the IC50 is the point on the concentration scale where inhibition reaches its midpoint. As to `CC(=O)OC[C@H]1O[C@@H]([S-])[C@H](OC(C)=O)[C@@H](OC(C)=O)[C@@H]1OC(C)=O.CCP(CC)CC.[Au+]` [Auranofin, reference compound], the IC50 turned out to be 4.42 ± 0.44 µM in data set [1]; 1.14 ± 0.46 µM in [2]; 3.15 ± 0.36 µM in the data set on MCF-7 cells; 3.66 ± 0.27 µM with K562 cells; 4.26 ± 0.45 µM with A549 cells; 3.75 ± 0.38 µM in [3].
For `N.N.[Cl][Pt][Cl]` [Cisplatin, reference compound], the IC50 in the data set on IGROV1-CSC cells turned out to be 3.76 ± 0.4 µM; in the data set on A2780 cells (setting [7]) it was 6.65 ± 1.42 µM; in data set [1] it was 6.99 ± 0.57 µM; in data set [2] it was 4.13 ± 0.59 µM; in the data set with MCF-7 cells, 7.18 ± 1.28 µM; in data set [4], 9.8 ± 0.64 µM. For the same molecule, the concentration for half-maximal inhibition (IC50) in the data set on K562 cells was determined as 7.91 ± 0.78 µM; in the data set with IGROV1 cells, 2.84 ± 0.76 µM; with A549 cells it was 6.67 ± 0.63 µM; in data set [3] it was 9.93 ± 0.77 µM.
In the case of `CCn1c(-c2ccccc2)c(-c2ccccc2)n(CC)[c]1=[Au+]([Cl])([Cl])=[c]1n(CC)c(-c2ccccc2)c(-c2ccccc2)n1CC.F[P-](F)(F)(F)(F)F` [Complex 9, Bis[1,3-diethyl-4,5-diphenyl-1H-imidazol-2-yliden]dichloridogold(III) Hexafluorophosphate], the IC50 was found to be 1.74 ± 0.19 µM in the data set on IGROV1-CSC cells; 0.25 ± 0.04 µM in the data set on A2780 cells (setting [7]); 0.21 ± 0.02 µM in data set [1]; 0.26 ± 0.05 µM in data set [2]; 0.24 ± 0.05 µM with MCF-7 cells; 0.05 ± 0.02 µM in data set [4]. In addition, the IC50 was found to be 0.55 ± 0.16 µM in the data set on K562 cells, 0.7 ± 0.38 µM in the data set with IGROV1 cells, 0.18 ± 0.01 µM in the data set with A549 cells and 1.43 ± 0.29 µM in data set [3]. The results for the “formation of 8” value in [5] (t0h) and in data set [5] (t24h) were 5.0% and 36.3%, respectively. Besides, the “formation of 8 (ligand scrambling / reduction)” value in data set [6] (t24h) is on record as 12.5%.
As to `CCn1c(-c2ccccc2)c(-c2ccccc2)n(CC)[c]1=[Au+]([Br])([Br])=[c]1n(CC)c(-c2ccccc2)c(-c2ccccc2)n1CC.F[P-](F)(F)(F)(F)F` [Complex 10, Bis[1,3-diethyl-4,5-diphenyl-1H-imidazol-2-ylidene]dibromidogold(III) Hexafluorophosphate], the IC50 in the data set on IGROV1-CSC cells was determined as 1.29 ± 0.23 µM; with A2780 cells (setting [7]) it was 0.29 ± 0.05 µM; in data set [1], 0.25 ± 0.04 µM; in data set [2], 0.29 ± 0.18 µM; in the data set with MCF-7 cells, 0.22 ± 0.07 µM; in data set [4], 0.1 ± 0.04 µM. Also, the IC50 was determined as 0.49 ± 0.12 µM in the data set with K562 cells, 0.44 ± 0.19 µM in the data set on IGROV1 cells, 0.2 ± 0.02 µM in the data set with A549 cells and 1.59 ± 0.3 µM in data set [3]. For the same molecule, the “formation of 8” value was 9.3% in [5] (t0h), 71.1% in data set [5] (t24h) and 2.2% in data set [6] (t0h (1.5 min)). Further, the “formation of 9 (Br/Cl exchange)” value in data set [5] (t0h) is recorded as 42.3%. In addition, in data set [5] (t24h), the “amount of 9” value is 18.2%. In [5] (t24h), the “remaining amount of the complex itself” value is recorded as 10.7%. Moreover, the “substitution to 9” value in data set [6] (t0h) was determined as 24.0%; in data set [6] (t24h), 54.4%. For the same molecule, in data set [6] (t24h), the “formation of 8 (ligand scrambling / reduction)” value is reported as 5.1%.
Consider `CCn1c(-c2ccccc2)c(-c2ccccc2)n(CC)[c]1=[Au][S]C[C@H](NC(=O)CC[C@H](N)C(=O)O)C(=O)NCC(=O)O` [Complex 12], for which the “IC50 relative to 5 (and 6) in A2780 cells, times higher / fold less active” value is “about 2 fold” with A2780 cells and 2 fold in the data set on A2780 cells (listed as (NHC)Au(I)-GSH). Further, the IC50 in the data set on A2780 cells (preliminary experiment, read-out: cell growth IC50, A2780) came to 15.9 µM.
As to “Bis[1,3-diethyl-4,5-diphenyl-1H-imidazol-2-ylidene]diiodidogold(III) Hexafluorophosphate [Complex 11]”, the IC50 with IGROV1-CSC cells turned out to be 2.45 ± 0.97 µM; in the data set with A2780 cells (setting [7]), 0.28 ± 0.06 µM; in data set [1], 0.27 ± 0.04 µM; in [2], 0.2 ± 0.07 µM; in the data set on MCF-7 cells, 0.19 ± 0.05 µM; in data set [4], 0.02 ± 0.01 µM. Moreover, the IC50 with K562 cells was determined as 0.97 ± 0.26 µM; in the data set on IGROV1 cells, 1.28 ± 0.93 µM; in the data set with A549 cells, 0.25 ± 0.02 µM; in [3], 2.26 ± 1.08 µM. Besides, in [5], the “time to complete conversion to 8” value is not above 8 h. In addition, the “substitution to 9” value in [6] (t0h) came to 0.4%.
